Experimental data reported in ChEMBL document CHEMBL5257151, “Design, synthesis, and pharmacological evaluation of N-(3-carbamoyl-1H-pyrazol-4-yl)-1,3-oxazole-4-carboxamide derivatives as interleukin-1 receptor-associated kinase 4 inhibitors with reduced potential for cytochrome P450 1A2 induction” (Bioorg Med Chem, 2023).
pIC50: −log10 of the molar value. One block for each molecule: values may come before it.

Assays:
[1] = biological target: T1, Interleukin-1 receptor-associated kinase 4 (Homo sapiens, UniProt Q9NWZ3); assay: Inhibition of human IRAK4 using biotinylated FGLARFSRFAGSSPSQSSMVARTQTVRGT peptide as substrate incubated for 1 hr in presence of ATP by ELISA assay
T1 sequence (Q9NWZ3 whole entry): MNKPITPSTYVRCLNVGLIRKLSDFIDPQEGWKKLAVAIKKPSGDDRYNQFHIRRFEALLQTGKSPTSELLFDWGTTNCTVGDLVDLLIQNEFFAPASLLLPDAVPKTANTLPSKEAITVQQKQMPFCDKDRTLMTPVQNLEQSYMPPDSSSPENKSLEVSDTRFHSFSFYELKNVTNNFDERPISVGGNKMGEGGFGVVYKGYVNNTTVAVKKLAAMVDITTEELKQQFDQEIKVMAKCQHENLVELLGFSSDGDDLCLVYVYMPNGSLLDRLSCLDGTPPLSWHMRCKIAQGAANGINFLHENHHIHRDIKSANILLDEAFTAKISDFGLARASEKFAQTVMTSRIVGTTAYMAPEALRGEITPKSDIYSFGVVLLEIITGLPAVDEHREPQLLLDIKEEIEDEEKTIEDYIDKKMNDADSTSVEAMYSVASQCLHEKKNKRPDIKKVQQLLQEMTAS

[2] = system: CYP1A2; assay: Induction of CYP1A2 mRNA expression in human HepaRG cells assessed as fold change at 15 uM incubated for 48 hrs; assay type: ADME, cell-based; conditions: read-out: FC
[3] = system: CYP1A2; assay: Induction of CYP1A2 mRNA expression in human HepaRG cells assessed as fold change at 30 uM incubated for 48 hrs; assay type: ADME, cell-based; conditions: read-out: FC
[4] = Inhibition of IL-1beta stimulated IL-6 production in human A549 cells pre-incubated for 1 hr followed by overnight stimulation by ELISA analysis; assay type: functional, cell-based
[5] = biological target: T2, CYP3A4 (Homo sapiens, UniProt P08684); assay: Time dependent inhibition of CYP3A4 in human liver microsomes assessed as residual activity at 5 uM using midazolam as substrate preincubated for 30 mins followed by substrate addition measured after 20 mins by LC-MS/MS analysis relative to control; assay type: ADME, Microsome; conditions: probe midazolam, read-out: Activity
T2 sequence (P08684 whole entry): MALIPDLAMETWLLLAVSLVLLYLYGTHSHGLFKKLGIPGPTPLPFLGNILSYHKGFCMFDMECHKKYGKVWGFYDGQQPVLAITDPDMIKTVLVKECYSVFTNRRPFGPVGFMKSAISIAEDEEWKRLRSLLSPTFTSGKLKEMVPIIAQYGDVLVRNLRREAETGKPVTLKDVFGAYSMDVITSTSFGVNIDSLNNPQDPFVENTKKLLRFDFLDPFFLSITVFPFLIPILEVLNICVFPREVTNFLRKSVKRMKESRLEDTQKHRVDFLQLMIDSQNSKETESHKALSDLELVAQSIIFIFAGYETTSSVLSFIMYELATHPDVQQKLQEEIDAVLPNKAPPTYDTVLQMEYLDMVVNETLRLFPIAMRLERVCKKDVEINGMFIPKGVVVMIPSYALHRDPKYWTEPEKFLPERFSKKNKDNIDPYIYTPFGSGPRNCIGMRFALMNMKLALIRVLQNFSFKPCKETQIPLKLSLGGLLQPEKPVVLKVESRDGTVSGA

[6] = biological target: T3, CYP1A2 (Homo sapiens, UniProt P05177); assay: Reversible inhibition of CYP1A2 in human liver microsomes assessed as residual activity at 5 uM using phenacetin as substrate preincubated for 30 mins followed by substrate addition measured after 20 mins by LC-MS/MS analysis relative to control; assay type: ADME, Microsome; conditions: probe phenacetin, time 50 min, read-out: Activity
T3 sequence (P05177 whole entry): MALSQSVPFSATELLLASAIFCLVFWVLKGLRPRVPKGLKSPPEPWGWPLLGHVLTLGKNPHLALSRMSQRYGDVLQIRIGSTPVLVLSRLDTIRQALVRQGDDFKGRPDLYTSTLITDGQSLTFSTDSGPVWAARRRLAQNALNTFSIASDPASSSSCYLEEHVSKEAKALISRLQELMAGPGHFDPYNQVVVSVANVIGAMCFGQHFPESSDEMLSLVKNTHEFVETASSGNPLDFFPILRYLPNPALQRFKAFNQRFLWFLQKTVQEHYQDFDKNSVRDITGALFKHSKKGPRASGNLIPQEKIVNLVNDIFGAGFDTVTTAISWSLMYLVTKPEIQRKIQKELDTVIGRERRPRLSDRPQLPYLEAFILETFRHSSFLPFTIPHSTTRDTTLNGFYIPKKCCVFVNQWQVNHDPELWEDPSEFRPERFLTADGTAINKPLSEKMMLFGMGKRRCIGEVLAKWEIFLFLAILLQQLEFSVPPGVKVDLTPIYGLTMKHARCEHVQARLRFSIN

[7] = biological target: T4, CYP2C8 (Homo sapiens, UniProt P10632); assay: Reversible inhibition of CYP2C8 in human liver microsomes assessed as residual activity at 5 uM using amodiaquine as substrate preincubated for 30 mins followed by substrate addition measured after 20 mins by LC-MS/MS analysis relative to control; assay type: ADME, Microsome; conditions: probe amodiaquine, time 50 min, read-out: Activity
T4 sequence (P10632 whole entry): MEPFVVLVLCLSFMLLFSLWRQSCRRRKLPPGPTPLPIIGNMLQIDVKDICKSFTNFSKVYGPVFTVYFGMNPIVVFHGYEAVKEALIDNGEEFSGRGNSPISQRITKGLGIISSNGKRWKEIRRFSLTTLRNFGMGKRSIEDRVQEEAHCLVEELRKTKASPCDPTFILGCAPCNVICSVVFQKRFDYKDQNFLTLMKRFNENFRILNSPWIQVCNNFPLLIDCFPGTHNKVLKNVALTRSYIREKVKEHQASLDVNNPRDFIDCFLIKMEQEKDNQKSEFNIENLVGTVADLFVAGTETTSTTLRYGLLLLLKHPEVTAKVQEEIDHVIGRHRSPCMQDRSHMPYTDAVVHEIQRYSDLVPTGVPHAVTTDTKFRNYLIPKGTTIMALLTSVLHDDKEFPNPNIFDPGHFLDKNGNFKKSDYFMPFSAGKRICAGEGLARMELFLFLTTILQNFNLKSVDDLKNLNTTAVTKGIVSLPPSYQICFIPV

[8] = biological target: T2, CYP3A4; assay: Reversible inhibition of CYP3A4 in human liver microsomes assessed as residual activity at 5 uM using midazolam as substrate preincubated for 30 mins followed by substrate addition measured after 20 mins by LC-MS/MS analysis relative to control; assay type: ADME, Microsome; conditions: probe midazolam, time 50 min, read-out: Activity
[9] = biological target: CYP2C9 (Homo sapiens, UniProt P11712); assay: Reversible inhibition of CYP2C9 in human liver microsomes assessed as residual activity at 5 uM using diclofenac as substrate preincubated for 30 mins followed by substrate addition measured after 20 mins by LC-MS/MS analysis relative to control; assay type: ADME, Microsome; conditions: probe diclofenac, time 50 min, read-out: Activity
CYP2C9, sequence (P11712 whole entry): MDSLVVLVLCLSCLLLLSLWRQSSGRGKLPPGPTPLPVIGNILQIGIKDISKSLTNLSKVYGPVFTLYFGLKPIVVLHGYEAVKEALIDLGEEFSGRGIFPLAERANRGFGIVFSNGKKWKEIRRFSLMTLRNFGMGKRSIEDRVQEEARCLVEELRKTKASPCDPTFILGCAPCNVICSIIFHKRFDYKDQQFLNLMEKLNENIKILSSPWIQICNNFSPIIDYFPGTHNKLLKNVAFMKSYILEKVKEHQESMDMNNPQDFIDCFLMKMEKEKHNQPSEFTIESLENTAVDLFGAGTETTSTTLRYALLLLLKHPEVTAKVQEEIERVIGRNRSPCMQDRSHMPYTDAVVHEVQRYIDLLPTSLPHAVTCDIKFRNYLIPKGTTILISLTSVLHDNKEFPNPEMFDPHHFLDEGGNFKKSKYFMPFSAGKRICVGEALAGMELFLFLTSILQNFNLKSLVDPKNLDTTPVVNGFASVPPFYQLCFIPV

[10] = system: CYP1A2; assay: Induction of CYP1A2 mRNA expression in human HepaRG cells assessed as fold change at 5 uM incubated for 48 hrs; assay type: ADME, cell-based; conditions: read-out: FC
[11] = system: CYP1A2; assay: Induction of CYP1A2 mRNA expression in human HepaRG cells assessed as fold change at 10 uM incubated for 48 hrs; assay type: ADME, cell-based; conditions: read-out: FC
[12] = system: CYP1A2; assay: Induction of CYP1A2 mRNA expression in human HepaRG cells assessed as fold change at 7.5 uM incubated for 48 hrs; assay type: ADME, cell-based; conditions: read-out: FC

pIC50 [1]: 7.70
activity at 20 min, 5 µM [5]: 78%
activity at 20 min, 5 µM [6]: 4%
activity at 20 min, 5 µM [7]: 70%
activity at 20 min, 5 µM [8]: 74%
activity at 20 min, 5 µM [9]: 56%
SMILES: CCn1cc(NC(=O)c2csc(-c3ccncc3)n2)c(C(N)=O)n1

pIC50 [1]: 7.80
activity at 20 min, 5 µM [5]: 108%
activity at 20 min, 5 µM [6]: 47%
activity at 20 min, 5 µM [7]: 103%
activity at 20 min, 5 µM [8]: 100%
fold induction at 48 h, 5 µM [10]: 16
activity at 20 min, 5 µM [9]: 98%
SMILES: CCn1cc(NC(=O)c2coc(-c3ccnc(C)c3)n2)c(C(N)=O)n1

pIC50 [1]: 7.10
SMILES: Cc1cc(-c2ncc(C(=O)Nc3cn(C4CCOCC4)nc3C(N)=O)o2)ccn1

pIC50 [1]: 7.28
SMILES: NC(=O)c1nn(C2CCOCC2)cc1NC(=O)c1coc(-c2ccnc(CO)c2)n1

pIC50 [1]: 7.52
fold induction at 48 h, 30 µM [3]: 10
SMILES: Cc1cc(-c2nc(C(=O)Nc3cn(C4CCOC4)nc3C(N)=O)co2)ccn1 (centres undefined)

pIC50 [1]: 6.82
SMILES: Cc1cc(-c2nc(C(=O)Nc3cn(CC4(C)COC4)nc3C(N)=O)co2)ccn1

pIC50 [1]: 7.09
SMILES: NC(=O)c1nn(C2CCOCC2)cc1NC(=O)c1coc(-c2ccncc2F)n1

pIC50 [1]: 7.62
SMILES: Cc1cc(-n2ccc(C(=O)Nc3cn(C4CCOCC4)nc3C(N)=O)n2)ccn1

pIC50 [1]: 7.74
fold induction at 48 h, 10 µM [11]: 15
SMILES: COCCn1cc(NC(=O)c2coc(-c3ccnc(C)c3)n2)c(C(N)=O)n1

activity at 20 min, 5 µM [5]: 89%
activity at 20 min, 5 µM [6]: 6%
activity at 20 min, 5 µM [7]: 103%
activity at 20 min, 5 µM [8]: 70%
activity at 20 min, 5 µM [9]: 59%
SMILES: CCn1cc(NC(=O)c2coc(-c3ccncc3)n2)c(C(N)=O)n1

pIC50 [1]: 7.60
fold induction at 48 h, 5 µM [10]: 8.9
SMILES: CCCCn1cc(NC(=O)c2coc(-c3ccnc(C)c3)n2)c(C(N)=O)n1

pIC50 [1]: 6.92
SMILES: Cc1cc(-c2nc(C(=O)Nc3c[nH]nc3C(N)=O)co2)ccn1

pIC50 [1]: 7.32
fold induction at 48 h, 15 µM [2]: 4
SMILES: Cc1cc(-c2nc(C(=O)Nc3cn(CC(C)C)nc3C(N)=O)co2)ccn1

pIC50 [1]: 7.59
SMILES: NC(=O)c1nn(C2CCOCC2)cc1NC(=O)c1coc(-c2ccc(F)cc2)n1

Continued, molecule first:

SMILES: Cn1cc(-c2nc(C(=O)Nc3cn(C4CCOCC4)nc3C(N)=O)co2)ccc1=O
pIC50 [1]: 7.49

SMILES: CCc1cc(-c2nc(C(=O)Nc3cn(C4CCOCC4)nc3C(N)=O)co2)ccn1
pIC50 [1]: 7.85

SMILES: Cc1cc(-c2nc(C(=O)Nc3cn(CC4CCOC4)nc3C(N)=O)co2)ccn1 (centres undefined)
pIC50 [1]: 7.47
fold induction at 48 h, 15 µM [2]: 4.5

SMILES: Cc1cc(-c2nc(C(=O)Nc3cn(C4CCS(=O)(=O)CC4)nc3C(N)=O)co2)ccn1
fold induction at 48 h, 30 µM [3]: 3.5
pIC50 [4]: 5.80

SMILES: Cc1cc(-c2ccc(C(=O)Nc3cn(C4CCOCC4)nc3C(N)=O)o2)ccn1
pIC50 [1]: 7.89

SMILES: CC(=O)N1CCC(n2cc(NC(=O)c3coc(-c4ccnc(C)c4)n3)c(C(N)=O)n2)CC1
pIC50 [1]: 7.77
pIC50 [4]: 6.34
fold induction at 48 h, 15 µM [2]: 3.2

SMILES: Cc1cc(-c2nc(C(=O)Nc3cn(C4CCN(C)CC4)nc3C(N)=O)co2)ccn1
pIC50 [1]: 7.74
pIC50 [4]: 6.35
fold induction at 48 h, 15 µM [2]: 3.6

SMILES: Cc1cc(-c2nc(C(=O)Nc3cn(C)nc3C(N)=O)co2)ccn1
pIC50 [1]: 7.80
fold induction at 48 h, 7.5 µM [12]: 21

SMILES: NC(=O)c1nn(C2CCOCC2)cc1NC(=O)c1coc(-c2ccnc(C3CC3)c2)n1
pIC50 [1]: 7.17
